What was measured:
[1] = Lipophilicity (logD7.4), n-octanol/PBS pH 7.4; format: physicochemical; details: n-octanol/PBS pH 7.4; read-out: logD7.4
Method: Cell-based experiments and determination of lipophilicity (logD7.4) were performed as previously published. A detailed description of the in vitro experiments is provided in the Supplementary Materials.
Cell Culture. CCK-2R-expressing rat pancreatic cancer cells AR42J (CLS GmbH, Eppelheim, Germany) were cultivated in monolayers in CELLSTAR® cell culture flasks acquired from Greiner Bio-One GmbH (Frickenhausen, Germany) at 37°C in a humidified atmosphere (5% CO2) using a HERAcell 150i-Incubator (Thermo Fisher Scientific Inc., Waltham, United States). The nutrient medium RPMI 1640 medium, supplemented with 5 mM L-Gln 5 mL non-essential amino acids (100×) and 10% FCS, was used. Furthermore, a Dulbecco’s PBS solution with 0.1% EDTA (v/v) was applied to detach the cells for cell passaging. The detached cells were counted using a Neubauer hemocytometer (Paul Marienfeld, Lauda-Königshofen, Germany). In addition, all operations under sterile conditions were accomplished using a MSC-Advantage safety workbench (Thermo Fisher Scientific Inc., Waltham, United States).
Determination of IC50. AR42J cells (2.0 × 10^5 cells/well) were seeded into 24-well plates 24 ± 2 h prior to testing using 1 mL of nutrient medium (RPMI 1640, 5 mM L-Gln, 5 mL non-essential amino acids (100×), 10% FCS). Cells were incubated at 37°C in a humidified atmosphere (5% CO2).
After the removal of the medium, each well was washed with 500 μL PBS. For the cell-based assay, 200 μL of the nutrient medium (+5% BSA), [ 177Lu]Lu-DOTA-PP-F11N (25 μL, 0.3 pmol) as a radiolabeled reference and 25 μL of the peptide of interest in increasing concentrations (10 −10 to 10−4 M) were added to the cells in triplicate. Thereafter, the assay was incubated for 3 h at 37°C and the supernatant was collected. The cells were washed with 300 μL PBS and the collected supernatant fractions were unified.
After lysis of the cells with NaOH (300 μL, 1 N) for 15 min, the respective wells were washed with NaOH (300 μ L, 1 N) and both fractions were unified. The radioactivity of both the supernatant and the lysed fractions were quantified using a γ-counter (PerkinElmer Inc., Waltham, United States). The obtained data were evaluated via the GraphPad PRISM software (GraphPad Software Inc., La Jolla, United States), which calculates the half-maximal inhibitory concentration (IC50) of the peptides.
Internalization Studies. For the determination of the internalization kinetics of the various peptides, AR42J cells (3.0 × 10^5 cells/well) were seeded into polylysine-coated 24-well plates, adding 1 mL of nutrient medium. Afterwards, the cells were incubated for 24 ± 2 h at 37°C in a humidified atmosphere […]
On the day of the experiment, the medium was removed, and each well was washed with nutrient medium (300 μL). Afterwards 200 μL of nutrient medium, 25 μL of the 177Lu-labeled peptide (0.3 pmol, n = 6) and either 25 μL of nutrient medium for internalization studies ( n = 3) or 25 μL of [natLu]Lu-DOTA-PP-F11N (10 μmol) for competition studies ( n = 3) were added. Thereafter, the assay was incubated for various time points (1, 2, 4 and 6 h) at 37°C in a humidified atmosphere (5% CO2). After incubation, the cells were put on ice for at least 1 min to stop internalization kinetics and the supernatant was collected. Then, the cells were washed with an ice-cold nutrient medium (300 μL) and both fractions were unified. […] The radioactivity of the supernatant, the acid wash and the lysed fractions were quantified using a γ-counter. […]

CCK-2R = molecular target: T1, CCK-2R (Rattus norvegicus, UniProt P30553); design: method as in earlier work; details: % of applied activity, 37 °C, AR42J cells, identical conditions, cited from earlier work
T1 construct: CCK-2R-expressing rat pancreatic cancer cells AR42J; host or cells: AR42J (rat pancreatic cancer cells)
T1 sequence (P30553 1-452): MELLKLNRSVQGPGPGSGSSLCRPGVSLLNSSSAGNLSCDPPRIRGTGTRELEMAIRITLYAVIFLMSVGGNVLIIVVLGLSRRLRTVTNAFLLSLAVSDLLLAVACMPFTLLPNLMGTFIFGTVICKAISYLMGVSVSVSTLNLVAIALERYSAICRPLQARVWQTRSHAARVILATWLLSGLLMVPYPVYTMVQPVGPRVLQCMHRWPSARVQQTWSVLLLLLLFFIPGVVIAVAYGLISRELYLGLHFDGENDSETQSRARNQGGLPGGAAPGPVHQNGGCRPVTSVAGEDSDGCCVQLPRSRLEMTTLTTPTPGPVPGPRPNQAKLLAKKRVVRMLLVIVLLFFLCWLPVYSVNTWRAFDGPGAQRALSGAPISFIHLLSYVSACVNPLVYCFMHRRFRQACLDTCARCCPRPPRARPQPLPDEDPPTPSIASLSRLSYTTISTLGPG

[2] = tested on: AR42J tumor-bearing CB17-SCID mice; details: 24 h p.i., 100 pmol; cited from earlier work

CCCC[C@H](NC(=O)[C@H](Cc1c[nH]c2ccccc12)NC(=O)CNC(=O)[C@H](Cc1ccc(O)cc1)NC(=O)[C@H](C)NC(=O)[C@@H](CCC(=O)O)NC(=O)[C@@H](CCC(=O)O)NC(=O)[C@@H](CCC(=O)O)NC(=O)[C@@H](CCC(=O)O)NC(=O)[C@@H](CCC(=O)O)NC(=O)[C@@H](CCC(=O)O)NC(=O)CN1CCN(CC(=O)O)CCN(CC(=O)O)CCN(CC(=O)O)CC1)C(=O)N[C@@H](CC(=O)O)C(=O)N[C@@H](Cc1ccccc1)C(N)=O [[^177Lu]Lu-DOTA-PP-F11N, metal not drawn]
logD [1]: < -4 | Internalization Values (%) 1 h (CCK-2R; 1 h): 6.44 ± 0.32% | Internalization Values (%) 2 h (CCK-2R; 2 h): 10.1 ± 0.4% | Internalization Values (%) 4 h (CCK-2R; 4 h): 17.5 ± 1.0% | Internalization Values (%) 6 h (CCK-2R; 6 h): 22.4 ± 0.6% | activity uptake in the tumor [2]: 1.9 ± 0.8 %ID/g

From PMC10054553, “Development of the First ^18F-Labeled Radiohybrid-Based Minigastrin Derivative with High Target Affinity and Tumor Accumulation by Substitution of the Chelating Moiety” (Pharmaceutics, 2023)
